Assay results: patent US12245562B2, “System for rapid, robust, and efficient in vitro mass propagation of Miscanthus x giganteus” (Delaware State University, priority 2017, dated 2025)
Structures can show the parent of a compound that is named as a salt.

Test system: endophytic fungi
Assay: control of endophyte growth in in vitro shoot culture media
Format: cell-based
Conditions: 54 μM in DSIM culture medium of Miscanthus x giganteus; compared with vancomycin hydrochloride 0, 13.5, 27, 41.5 μM and tetracycline hydrochloride 20.8 or 52 μM

CN[C@H](CC(C)C)C(=O)N[C@H]1C(=O)N[C@@H](CC(N)=O)C(=O)N[C@H]2C(=O)N[C@H]3C(=O)N[C@H](C(=O)N[C@H](C(=O)O)c4cc(O)cc(O)c4-c4cc3ccc4O)[C@H](O)c3ccc(c(Cl)c3)Oc3cc2cc(c3O[C@@H]2O[C@H](CO)[C@@H](O)[C@H](O)[C@H]2O[C@H]2C[C@](C)(N)[C@H](O)[C@H](C)O2)Oc2ccc(cc2Cl)[C@H]1O [vancomycin, vancomycin hydrochloride]
controlling the growth of endophytic fungi in the culture media: more effective
